# Experimental data: ChEMBL document CHEMBL3351551, “Neuraminidase inhibitory activities of quaternary isoquinoline alkaloids from Corydalis turtschaninovii rhizome” (Bioorg Med Chem, 2014)
# pIC50, pKi: −log10 of the molar value.
# Assays:
# [1] = Inhibition of Clostridium perfringens neuraminidase 4-methylumbelliferyl-alpha-D-Nacetylneuraminic acid sodium salt hydrate as substrate by fluorometry
# Neuraminidase = Neuraminidase (Influenza A virus (strain A/USSR/90/1977 H1N1), UniProt P03469); assay: Inhibition of recombinant Influenza A virus H1N1 neuraminidase using 4-methylumbelliferyl-alpha-D-Nacetylneuraminic acid sodium salt hydrate as substrate by fluorometry
# Neuraminidase, sequence (P03469 whole entry): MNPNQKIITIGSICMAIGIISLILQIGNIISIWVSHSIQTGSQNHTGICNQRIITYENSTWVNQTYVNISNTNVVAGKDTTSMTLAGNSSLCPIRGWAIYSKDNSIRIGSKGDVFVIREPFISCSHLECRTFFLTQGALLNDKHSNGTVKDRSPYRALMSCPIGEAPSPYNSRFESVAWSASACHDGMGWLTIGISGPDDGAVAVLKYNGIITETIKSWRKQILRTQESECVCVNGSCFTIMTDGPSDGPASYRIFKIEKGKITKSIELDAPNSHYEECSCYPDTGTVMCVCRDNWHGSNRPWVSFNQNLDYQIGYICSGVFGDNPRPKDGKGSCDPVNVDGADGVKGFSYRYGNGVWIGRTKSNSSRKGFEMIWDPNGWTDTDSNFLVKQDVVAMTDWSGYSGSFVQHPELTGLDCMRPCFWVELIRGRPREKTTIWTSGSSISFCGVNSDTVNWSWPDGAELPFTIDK
# [2] = Inhibition of Clostridium perfringens neuraminidase by Dixon plot
# Clostridium perfringens [3] = assay: Antibacterial activity against Clostridium perfringens in tryptic soy broth after 24 hrs; type: functional
# Clostridium perfringens [4] = assay: Inhibition of Clostridium perfringens neuraminidase 4-methylumbelliferyl-alpha-D-Nacetylneuraminic acid sodium salt hydrate as substrate at 100 uM by fluorometry
Structure (SMILES),pIC50 [1],pIC50 (Neuraminidase),pKi [2],MIC (Clostridium perfringens [3]),inhibition (Clostridium perfringens [4])
COc1cc2c(cc1OC)-c1cc3ccc(OC)c(OC)c3c[n+]1CC2 [PALMITINE],4.89,4.48,4.77,44.7 µM,–
CC1(C)S[C@@H]2[C@H](NC(=O)[C@H](N)c3ccccc3)C(=O)N2[C@H]1C(=O)O [AMPICILLIN],–,–,–,0.3 µM,–
COc1cc(/C=C/C(=O)CC(=O)/C=C/c2ccc(O)c(OC)c2)ccc1O [CURCUMIN],5.22,–,–,–,–
c1c2c(cc3c1OCO3)-c1cc3ccc4c(c3c[n+]1CC2)OCO4 [COPTISINE],4.60,4.60,–,–,–
COc1cc2c(cc1O)CC[n+]1cc3c(OC)c(OC)ccc3cc1-2 [JATRORRHIZINE],4.43,4.18,–,–,–
COc1ccc2cc3[n+](cc2c1OC)CCc1cc2c(cc1-3)OCO2 [BERBERINE],4.87,4.41,4.92,52.2 µM,–
COc1cc2c(cc1OC)[C@H]1[C@@H](C)c3ccc(OC)c(OC)c3CN1CC2,–,–,–,–,12.7%
COc1cc2c(cc1OC)-c1c(C)c3cc(OC)c(OC)cc3c[n+]1CC2,4.49,–,–,–,–
COc1cc2c(cc1O)CC[n+]1cc3c(OC)c(OC)ccc3c(C)c1-2,4.38,4.09,–,–,–
COc1cc2c(cc1OC)-c1c(OC)c(OC)cc3c1[C@H](C2)N(C)CC3 [GLAUCINE],4.01,–,–,–,–
c1c2c(cc3c1OCO3)-c1cc3cc4c(cc3c[n+]1CC2)OCO4,4.19,3.90,–,–,–
c1cc2c(c3c1CC1c4cc5c(cc4CCN1C3)OCO5)OCO2 (configuration not stated),–,–,–,–,4.7%
